ChEMBL document CHEMBL5465560, “Selectivity Literature for EUbOPEN Chemogenomic Library” (2024)

Key:
[1] = molecular target: Interferon-induced, double-stranded RNA-activated protein kinase (Homo sapiens) (UniProt P19525); assay: Selectivity interaction (KinomeScan (DiscoverX)) EUB0001049a EIF2AK2; settings: at 1 µM
[2] = molecular target: T1, Serine/threonine-protein kinase Nek2 (Homo sapiens) (UniProt P51955); assay: Selectivity interaction (Millipore kinase profiler) EUB0000124b NEK2; settings: at 10 µM
T1 sequence (whole entry): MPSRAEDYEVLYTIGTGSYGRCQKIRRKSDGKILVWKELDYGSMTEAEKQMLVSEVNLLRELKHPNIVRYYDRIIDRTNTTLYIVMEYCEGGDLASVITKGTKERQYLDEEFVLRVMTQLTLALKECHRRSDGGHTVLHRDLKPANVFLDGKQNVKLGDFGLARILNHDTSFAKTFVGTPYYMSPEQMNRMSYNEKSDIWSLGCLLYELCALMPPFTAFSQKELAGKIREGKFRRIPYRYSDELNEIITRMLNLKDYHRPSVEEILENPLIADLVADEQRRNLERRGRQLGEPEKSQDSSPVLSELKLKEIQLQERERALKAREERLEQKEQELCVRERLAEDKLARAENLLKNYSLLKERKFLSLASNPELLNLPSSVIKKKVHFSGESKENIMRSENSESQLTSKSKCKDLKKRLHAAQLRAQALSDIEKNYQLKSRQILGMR

[3] = molecular target: Serine/threonine-protein kinase tousled-like 2 (Homo sapiens) (UniProt Q86UE8); assay: Selectivity interaction (KinomeScan (DiscoverX)) EUB0000666a TLK2; settings: at 10 µM
Chain of Serine/threonine-protein kinase tousled-like 2 (Homo sapiens) (Q86UE8 whole entry, looked up): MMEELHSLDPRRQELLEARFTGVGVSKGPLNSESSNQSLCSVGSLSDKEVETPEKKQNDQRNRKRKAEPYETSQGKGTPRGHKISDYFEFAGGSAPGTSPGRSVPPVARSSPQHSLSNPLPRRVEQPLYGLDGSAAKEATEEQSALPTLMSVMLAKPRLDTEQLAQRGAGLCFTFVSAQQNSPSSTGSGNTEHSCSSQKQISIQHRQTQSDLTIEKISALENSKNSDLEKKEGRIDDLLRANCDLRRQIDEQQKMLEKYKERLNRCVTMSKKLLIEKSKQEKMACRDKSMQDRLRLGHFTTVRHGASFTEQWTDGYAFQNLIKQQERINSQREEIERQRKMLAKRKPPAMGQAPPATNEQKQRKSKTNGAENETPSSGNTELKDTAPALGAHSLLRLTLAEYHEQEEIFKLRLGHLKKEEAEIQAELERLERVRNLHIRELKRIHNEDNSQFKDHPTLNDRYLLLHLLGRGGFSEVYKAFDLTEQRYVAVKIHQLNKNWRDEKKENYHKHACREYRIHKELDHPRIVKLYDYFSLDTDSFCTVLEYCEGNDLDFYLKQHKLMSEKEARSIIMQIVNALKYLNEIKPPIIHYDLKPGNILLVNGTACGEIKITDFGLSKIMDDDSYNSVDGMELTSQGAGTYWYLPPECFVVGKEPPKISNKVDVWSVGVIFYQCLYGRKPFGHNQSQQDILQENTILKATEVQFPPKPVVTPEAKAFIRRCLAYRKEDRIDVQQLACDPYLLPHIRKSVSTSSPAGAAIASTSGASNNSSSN

[4] = molecular target: Tyrosine-protein kinase JAK1 (Homo sapiens, UniProt P23458); assay: Selectivity interaction (KinomeScan (DiscoverX)) EUB0001079a JAK1; settings: at 1 µM
[5] = molecular target: DNA-dependent protein kinase catalytic subunit (Homo sapiens) (UniProt P78527); assay: Selectivity interaction (Kinase panel (KiNativ target engagement assay in Jurkat cells)) EUB0001635a PRKDC; assay type: cell-based; settings: Selectivity number of off-targets 0.0, Selectivity number of targets 233.0, Source Knowledge https://www.sciencedirect.com/science/article/pii/S2451945619300674?via%3Dihub, at 1 µM
[6] = molecular target: Sodium-dependent dopamine transporter (Homo sapiens, UniProt Q01959); assay: Selectivity interaction (Dopamine Transporter assay, human recombinant ) EUB0000877a SLC6A3
Chain of Sodium-dependent dopamine transporter (Q01959 whole entry): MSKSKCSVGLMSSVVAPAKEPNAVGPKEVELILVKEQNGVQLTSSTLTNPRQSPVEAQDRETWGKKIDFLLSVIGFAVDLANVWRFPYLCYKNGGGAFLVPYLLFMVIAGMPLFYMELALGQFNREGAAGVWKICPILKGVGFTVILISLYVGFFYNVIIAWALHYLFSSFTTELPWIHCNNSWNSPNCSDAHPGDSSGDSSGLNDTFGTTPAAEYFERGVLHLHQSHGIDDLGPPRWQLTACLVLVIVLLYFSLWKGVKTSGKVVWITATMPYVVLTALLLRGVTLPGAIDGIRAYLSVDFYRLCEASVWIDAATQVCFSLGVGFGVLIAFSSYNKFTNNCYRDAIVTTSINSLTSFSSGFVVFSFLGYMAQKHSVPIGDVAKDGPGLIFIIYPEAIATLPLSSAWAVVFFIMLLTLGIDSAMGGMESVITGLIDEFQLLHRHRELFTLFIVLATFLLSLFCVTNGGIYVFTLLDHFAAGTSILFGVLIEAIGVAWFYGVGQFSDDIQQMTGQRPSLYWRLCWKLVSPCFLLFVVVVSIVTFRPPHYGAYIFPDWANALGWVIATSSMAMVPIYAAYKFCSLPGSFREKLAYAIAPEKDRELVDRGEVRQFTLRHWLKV

[7] = molecular target: Ephrin type-A receptor 2 (Homo sapiens) (UniProt P29317); assay: Selectivity interaction (KinomeScan (DiscoverX)) EUB0000092b EPHA2; settings: at 10 µM
[8] = molecular target: T2, Serine/threonine-protein kinase BRSK2 (Homo sapiens) (UniProt Q8IWQ3); assay: Selectivity interaction (KinomeScan (DiscoverX)) EUB0000045b BRSK2
T2 sequence (whole entry): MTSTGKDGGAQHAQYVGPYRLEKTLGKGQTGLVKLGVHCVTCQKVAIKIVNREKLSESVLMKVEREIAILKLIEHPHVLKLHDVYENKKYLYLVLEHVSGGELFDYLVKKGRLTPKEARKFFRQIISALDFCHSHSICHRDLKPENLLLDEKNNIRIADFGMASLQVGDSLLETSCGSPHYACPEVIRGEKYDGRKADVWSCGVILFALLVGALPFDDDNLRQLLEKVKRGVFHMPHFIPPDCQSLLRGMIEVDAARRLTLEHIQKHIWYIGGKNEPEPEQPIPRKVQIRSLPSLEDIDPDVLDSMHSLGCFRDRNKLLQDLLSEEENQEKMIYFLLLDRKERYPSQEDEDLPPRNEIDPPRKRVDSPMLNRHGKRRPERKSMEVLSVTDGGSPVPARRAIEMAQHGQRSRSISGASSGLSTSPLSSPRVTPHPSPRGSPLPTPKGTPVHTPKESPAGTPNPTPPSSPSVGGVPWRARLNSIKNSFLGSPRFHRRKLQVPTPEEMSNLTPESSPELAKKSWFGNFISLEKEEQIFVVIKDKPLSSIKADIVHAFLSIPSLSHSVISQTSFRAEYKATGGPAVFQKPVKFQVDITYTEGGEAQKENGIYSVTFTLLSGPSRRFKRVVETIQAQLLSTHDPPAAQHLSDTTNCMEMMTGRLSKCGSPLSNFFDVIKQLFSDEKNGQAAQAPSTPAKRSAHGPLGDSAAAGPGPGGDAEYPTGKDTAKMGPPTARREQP

[9] = molecular target: T3, Casein kinase I isoform alpha-like (Homo sapiens) (UniProt Q8N752); assay: Selectivity interaction (KinomeScan (DiscoverX)) EUB0000045b CSNK1A1L
T3 sequence (whole entry): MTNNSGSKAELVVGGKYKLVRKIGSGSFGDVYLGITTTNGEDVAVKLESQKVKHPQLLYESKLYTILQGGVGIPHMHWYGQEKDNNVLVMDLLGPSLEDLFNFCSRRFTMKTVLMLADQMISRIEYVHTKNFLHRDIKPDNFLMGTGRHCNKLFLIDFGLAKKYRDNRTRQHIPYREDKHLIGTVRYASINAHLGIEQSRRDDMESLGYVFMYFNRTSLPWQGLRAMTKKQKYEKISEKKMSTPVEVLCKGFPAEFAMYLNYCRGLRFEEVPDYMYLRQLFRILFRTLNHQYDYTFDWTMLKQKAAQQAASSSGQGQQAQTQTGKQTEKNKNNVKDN

[10] = molecular target: T4, Dual specificity mitogen-activated protein kinase kinase 6 (Homo sapiens) (UniProt P52564); settings: at 10 µM
T4 sequence (whole entry): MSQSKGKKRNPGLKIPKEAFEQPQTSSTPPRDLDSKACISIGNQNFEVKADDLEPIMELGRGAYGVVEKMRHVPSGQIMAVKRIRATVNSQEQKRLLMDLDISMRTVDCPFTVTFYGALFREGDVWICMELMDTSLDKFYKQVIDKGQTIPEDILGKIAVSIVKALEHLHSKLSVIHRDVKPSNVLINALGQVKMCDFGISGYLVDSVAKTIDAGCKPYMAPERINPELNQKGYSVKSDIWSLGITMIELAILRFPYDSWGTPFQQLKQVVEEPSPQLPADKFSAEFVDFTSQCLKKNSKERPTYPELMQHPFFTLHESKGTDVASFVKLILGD

[11] = molecular target: Serine/threonine-protein kinase MRCK gamma (Homo sapiens) (UniProt Q6DT37); assay: Selectivity interaction (KinomeScan (DiscoverX)) EUB0001619a CDC42BPG; settings: at 1 µM
Chain of Serine/threonine-protein kinase MRCK gamma (Homo sapiens) (Q6DT37 whole entry): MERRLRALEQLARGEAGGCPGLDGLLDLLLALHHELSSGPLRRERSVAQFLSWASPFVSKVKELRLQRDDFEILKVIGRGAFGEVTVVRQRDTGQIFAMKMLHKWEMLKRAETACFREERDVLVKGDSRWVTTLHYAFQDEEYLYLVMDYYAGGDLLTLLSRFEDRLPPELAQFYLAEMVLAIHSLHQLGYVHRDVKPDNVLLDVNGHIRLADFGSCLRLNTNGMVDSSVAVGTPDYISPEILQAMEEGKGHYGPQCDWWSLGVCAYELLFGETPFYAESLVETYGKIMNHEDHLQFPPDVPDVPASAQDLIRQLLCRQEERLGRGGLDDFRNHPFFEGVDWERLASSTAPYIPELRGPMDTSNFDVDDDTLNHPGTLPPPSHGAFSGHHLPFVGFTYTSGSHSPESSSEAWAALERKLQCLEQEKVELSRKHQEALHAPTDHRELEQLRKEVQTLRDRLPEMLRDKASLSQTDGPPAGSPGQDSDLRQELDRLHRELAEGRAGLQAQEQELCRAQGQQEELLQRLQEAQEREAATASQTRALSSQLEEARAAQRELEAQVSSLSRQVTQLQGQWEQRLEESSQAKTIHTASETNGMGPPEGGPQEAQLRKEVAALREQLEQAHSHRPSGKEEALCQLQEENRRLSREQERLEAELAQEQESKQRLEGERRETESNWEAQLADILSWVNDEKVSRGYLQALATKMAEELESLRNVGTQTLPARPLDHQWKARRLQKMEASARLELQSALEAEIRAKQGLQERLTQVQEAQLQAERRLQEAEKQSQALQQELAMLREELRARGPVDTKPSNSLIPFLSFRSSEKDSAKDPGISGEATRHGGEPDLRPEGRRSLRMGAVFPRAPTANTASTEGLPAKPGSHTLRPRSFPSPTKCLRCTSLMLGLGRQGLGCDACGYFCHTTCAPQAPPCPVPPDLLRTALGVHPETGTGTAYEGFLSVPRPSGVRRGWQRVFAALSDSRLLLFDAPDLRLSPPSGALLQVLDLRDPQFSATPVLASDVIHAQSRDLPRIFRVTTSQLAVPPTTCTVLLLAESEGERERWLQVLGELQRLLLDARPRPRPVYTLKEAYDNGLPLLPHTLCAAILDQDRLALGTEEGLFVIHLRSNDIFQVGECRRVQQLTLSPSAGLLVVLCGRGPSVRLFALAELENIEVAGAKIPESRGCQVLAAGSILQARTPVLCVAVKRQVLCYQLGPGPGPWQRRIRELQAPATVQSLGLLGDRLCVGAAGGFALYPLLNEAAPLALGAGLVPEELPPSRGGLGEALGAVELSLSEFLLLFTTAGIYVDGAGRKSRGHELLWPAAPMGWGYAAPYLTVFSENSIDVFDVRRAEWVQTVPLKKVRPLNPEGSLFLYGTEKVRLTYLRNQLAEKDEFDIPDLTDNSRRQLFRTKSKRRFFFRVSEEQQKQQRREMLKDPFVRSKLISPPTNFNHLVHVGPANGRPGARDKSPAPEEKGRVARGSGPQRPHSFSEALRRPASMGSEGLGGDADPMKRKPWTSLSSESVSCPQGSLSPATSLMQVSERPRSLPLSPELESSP

[12] = molecular target: Ribosomal protein S6 kinase alpha-5 (Homo sapiens) (UniProt O75582); assay: Selectivity interaction (KinomeScan (DiscoverX)) EUB0000695a RPS6KA5; settings: at 100 nM
Chain of Ribosomal protein S6 kinase alpha-5 (Homo sapiens) (O75582 whole entry, looked up): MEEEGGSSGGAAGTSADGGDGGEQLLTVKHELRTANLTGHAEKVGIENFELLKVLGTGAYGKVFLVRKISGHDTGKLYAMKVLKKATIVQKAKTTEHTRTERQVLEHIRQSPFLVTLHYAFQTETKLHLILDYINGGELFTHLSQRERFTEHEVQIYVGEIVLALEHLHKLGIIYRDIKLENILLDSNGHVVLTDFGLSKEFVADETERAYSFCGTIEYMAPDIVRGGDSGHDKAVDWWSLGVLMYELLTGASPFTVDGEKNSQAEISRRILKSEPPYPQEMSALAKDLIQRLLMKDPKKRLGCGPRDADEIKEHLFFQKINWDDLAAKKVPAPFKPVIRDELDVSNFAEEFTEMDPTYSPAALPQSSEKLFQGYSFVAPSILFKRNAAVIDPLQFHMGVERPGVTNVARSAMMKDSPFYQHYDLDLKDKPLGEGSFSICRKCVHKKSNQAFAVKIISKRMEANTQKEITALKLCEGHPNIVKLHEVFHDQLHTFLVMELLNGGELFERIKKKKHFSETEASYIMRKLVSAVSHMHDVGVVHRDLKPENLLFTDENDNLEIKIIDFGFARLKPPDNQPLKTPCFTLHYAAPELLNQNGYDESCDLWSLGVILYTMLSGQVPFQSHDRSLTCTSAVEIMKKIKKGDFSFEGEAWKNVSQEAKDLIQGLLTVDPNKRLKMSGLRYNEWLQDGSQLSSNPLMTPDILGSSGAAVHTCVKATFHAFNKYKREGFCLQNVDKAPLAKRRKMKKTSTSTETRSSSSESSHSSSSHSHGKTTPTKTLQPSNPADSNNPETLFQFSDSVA

[13] = molecular target: Serine/threonine-protein kinase MARK1 (Homo sapiens) (UniProt Q9P0L2); assay: Selectivity interaction (KinomeScan (DiscoverX)) EUB0000607a MARK1; settings: at 10 µM
[14] = molecular target: 5-hydroxytryptamine receptor 2A (Homo sapiens, UniProt P28223); assay: Selectivity interaction (Panel of kinases, GPCRs, ion channels and transporters (enzymatic assay)) EUB0000223bCl HTR2A
Chain of 5-hydroxytryptamine receptor 2A (P28223 whole entry): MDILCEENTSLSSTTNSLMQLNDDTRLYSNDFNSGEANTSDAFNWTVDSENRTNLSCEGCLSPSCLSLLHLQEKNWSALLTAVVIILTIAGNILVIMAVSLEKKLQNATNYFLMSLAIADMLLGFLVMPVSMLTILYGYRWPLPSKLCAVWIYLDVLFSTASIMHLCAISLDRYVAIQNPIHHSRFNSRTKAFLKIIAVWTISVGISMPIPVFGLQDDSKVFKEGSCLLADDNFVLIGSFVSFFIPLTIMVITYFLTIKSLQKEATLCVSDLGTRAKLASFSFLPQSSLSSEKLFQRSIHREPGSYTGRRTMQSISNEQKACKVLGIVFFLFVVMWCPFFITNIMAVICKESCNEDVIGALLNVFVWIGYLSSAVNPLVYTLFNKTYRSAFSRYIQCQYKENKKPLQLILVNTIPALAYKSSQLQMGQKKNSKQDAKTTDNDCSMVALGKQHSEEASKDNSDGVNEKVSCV

Chain of Interferon-induced, double-stranded RNA-activated protein kinase (Homo sapiens) (P19525 whole entry): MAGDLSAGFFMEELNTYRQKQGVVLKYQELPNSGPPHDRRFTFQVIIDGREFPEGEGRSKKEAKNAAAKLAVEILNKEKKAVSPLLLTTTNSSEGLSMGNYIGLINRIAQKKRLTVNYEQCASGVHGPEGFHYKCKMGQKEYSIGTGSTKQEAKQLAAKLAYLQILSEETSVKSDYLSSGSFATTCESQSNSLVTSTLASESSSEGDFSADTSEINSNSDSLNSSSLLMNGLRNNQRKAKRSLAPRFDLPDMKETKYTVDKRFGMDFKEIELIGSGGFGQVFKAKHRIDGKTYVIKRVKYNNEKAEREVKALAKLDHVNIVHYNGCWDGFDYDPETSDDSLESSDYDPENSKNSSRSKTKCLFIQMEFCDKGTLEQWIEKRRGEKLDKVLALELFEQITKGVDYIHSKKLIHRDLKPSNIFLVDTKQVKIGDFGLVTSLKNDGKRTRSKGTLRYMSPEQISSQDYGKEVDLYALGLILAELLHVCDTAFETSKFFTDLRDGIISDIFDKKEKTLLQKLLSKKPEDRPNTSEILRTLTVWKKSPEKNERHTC

COc1cc(Nc2nc(C)cc(-c3cnn4nc(OC)ccc34)n2)cc(C(F)(F)F)c1
% of control [1]: 100%

CC(=O)Nc1cccc(-n2c(=O)n(C3CC3)c(=O)c3c(Nc4ccc(I)cc4F)n(C)c(=O)c(C)c32)c1
% of control [2]: 119%

O=C(NOC[C@H](O)CO)c1ccc(F)c(F)c1Nc1ccc(I)cc1F
% of control [3]: 98%

Nc1cnc(N2CCc3cc(S(=O)(=O)Nc4c(F)cc(Cl)cc4F)cc(N4CCCC4=O)c32)nc1 [TP-020n]
% of control [4]: 93%

C=CC(=O)Nc1ccc(C(=O)Nc2[nH]nc3c2CN(C(=O)N[C@H](CN(C)C)c2ccccc2)C3(C)C)cc1
% of engagement [5]: -14%

CCC(=O)N1CC[C@H](Nc2ncnc3c2CN(c2cnc(OC)c(C(F)(F)F)c2)CC3)C1 [LENIOLISIB]
IC50 [6]: > 30 µM

CCC(=O)N1CCN(c2ccc(-n3c(=O)ccc4cnc5ccc(-c6cnc7ccccc7c6)cc5c43)cc2C(F)(F)F)CC1
% of control [7]: 59%

C=CC(=O)Nc1cc(-n2c(=O)ccc3cnc4ccc(-c5ccc(NS(C)(=O)=O)cc5)cc4c32)ccc1C
% of control ([8]; at 1 µM): 84%
% of control ([8]; at 10 µM): 100%
% of control ([9]; at 1 µM): 100%
% of control ([9]; at 10 µM): 100%

Cc1cc([C@@H](C)Nc2ccccc2C(=O)O)c2nc(N3CCOCC3)cc(=O)n2c1 [AZD-6482]
% of control [10]: 92%

N#Cc1cccc(-c2c[nH]c3ncnc(N4CCOCC4)c23)c1
% of control [11]: 100%

Cc1cc(F)c(C(=O)Nc2cccc(-c3nncn3C(C)C)n2)cc1-n1cnc(C2CC2)c1
% of control [12]: 100%

CNC(=O)Nc1ccc(-c2nc(N3CC4CCC(C3)O4)c3cnn(C4CCC5(CC4)OCCO5)c3n2)cc1
% of control [13]: 100%

COc1cc(C(=O)N2CC[C@@H](O)[C@@H](N)C2)cc2nc(-c3cc4ccccc4n3CC3CC3)n(C)c12
pXC50 [14]: 4.9 M
